Test: physchem
Format: physicochemical
Details: pH 6

O=C1NC(Cc2ccc(O)cc2)C(=O)NC1Cc1ccc(O)cc1 (stereo not shown) [cYY, 3,6-bis(4-hydroxybenzyl)piperazine-2,5-dione]
pKa: 9.9 ± 0.02
